Measured values reported in patent publication US10828368B2, “Therapeutic treatments using centhaquin” (MIDWESTERN UNIVERSITY, priority 2009, dated 2020).
“Also recorded” adds a separate entry of the source. Counter-ions that a name gives are not always drawn. Like-named read-outs stand apart in the source and are kept apart here. Ends that are not written are not given here.

Columns and labels:
[1] = test system: urethane anaesthetized rats; assay: Cardiovascular response (MAP, PP, HR) of drugs in urethane anaesthetized rats; assay type: in vivo, rat; conditions: for decrease in HR after centhaquin in antagonist treated rats, compared to baseline / decrease in MAP after centhaquin in antagonist treated rats, compared to baseline / decrease in PP after centhaquin in antagonist treated rats, compared to baseline / potentiation of centhaquin hypotensive effect compared to vehicle treated rats / potentiation of centhaquin-induced decrease in HR (bradycardia) compared to vehicle treated rats: TAK-044 1 mg/kg or BMS-182874 9 mg/kg + centhaquin 0.15 mg/kg; for maximum decrease in PP after clonidine in antagonist treated rats, compared to baseline / reduction in MAP after clonidine in antagonist treated rats, compared with the baseline: TAK-044 1 mg/kg or BMS-182874 9 mg/kg + clonidine 10 μg/kg; for change in MAP, PP and HR, antagonist alone: TAK-044 1 mg/kg or BMS-182874 9 mg/kg alone; for Bradycardia, Centhaquin, percent change / Decrease in pulse pressure, Centhaquin, percent change / Hypotension, Centhaquin, percent change: centhaquin 0.33 mg/kg [sic], compared to centhaquin response in control rats; for fall in MAP / decrease in PP: compared to baseline
Source text: Rats were anaesthetized with urethane (1.5 g/kg i.p.) and prepared for the determination of hemodynamic parameters (Gulati and Srimal, 1993; Gulati et al., 1997b). The anesthetized rats were shaved and immobilized to prepare for cannulation. A 2-3 cm incision was made above the femoral vein and artery, and the vessels were dissected and cleaned. The left femoral vein was cannulated (PE-50 tubing, Clay Adams, Parsipanny, N.J.) and secured for drug administration. An ultra-miniature Pressure transducer SPR-320 (2F Polyurethane), with a single pressure sensor side mounted at the tip (Millar Instruments, Houston, Tex.), was inserted in the left femoral artery to acquire the hemodynamic signals. Pressure transducer was connected to bridge amplifier (ML221 Bridge Amp; AD Instruments, Mountain View, Calif., USA) with Viking connector (AEC-10C) and the signals were continuously acquired at a sampling rate of 1000 S^−1 using Millar PowerLab 16/30 data acquisition system (AD Instruments, Mountain View, Calif., USA). MAP, HR, and PP were determined and analyzed with LabChart-5.00 software program (Millar Instruments). After the experiment was completed, the animals were euthanized with higher dose of urethane (3 gm/kg).
The animals were allowed to stabilize for at least 20 min following surgical procedures.
In the above studies, all drugs were injected through the left femoral vein and changes in MAP, HR, and PP after clonidine and centhaquin injection were recorded for 1 hour using Millar PowerLab 16/30 data acquisition system.

[2] = test system: α-adrenergic receptors in the hypothalamus and medulla; conditions: chronic administration in rats; with hypotension and bradycardia; cited from earlier work
[3] = Arterial blood gas analysis before and one hour after drug; assay type: in vivo, rat
Source text: Arterial blood pH, pO2, pCO2, Na^+, K^+, and lactate were monitored prior to and after drug administration. Blood samples were drawn from the arterial cannula using blood gas sampling syringes (Innovative Medical Technologies, Inc. Leawood, Kans.) and analyzed using a GEM Premier 3000 unit (Instrument Laboratory, Lexington, Mass.).
Blood samples were drawn from the arterial cannula using blood gas sampling syringes (Innovative Medical Technologies, Inc. Leawood, Kans.) and analyzed using a GEM Premier 3000 unit (Instrument Laboratory, Lexington, Mass.).

rats = conditions: clonidine given intravenously in cervical sectioned rats; cited from earlier work
[4] = test system: 5-HT1 receptors in the medulla; conditions: cited from earlier work
[5] = test system: rat abdominal aortic ring; assay: Clonidine response on the abdominal aortic ring; conditions: for EC50: Rattus norvegicus, read-out: ED50 value, aortic ring contraction
Procedure: The abdominal aorta was isolated and dissected out from urethane (1.5 g·kg^−1 i.p.) anesthetized rats and was transferred to Krebs bicarbonate buffer pH 7.4 (composition in mM, NaCl, 112.0; KCl, 4.7; KH2PO4, 1.2; MgSO4, 1.2; CaCl2, 2.5; NaHCO3, 25.0; glucose, 11.0) with continuous supply of 95% O2 and 5% CO2 at 37±1° C. The tissue was cut into ring segments (3 mm in length) and mounted in organ baths using 10 mm Radnoti glass ring supports. Extra care was taken while cutting and mounting the ring segment to prevent loss of endothelial layer. Tissue was equilibrated for 45 min by applying 2 g of tension with regular buffer change after every 15 min. Vessels were pre-contracted with 100 mM KCl to determine the viability. Clonidine-induced contractions of aortic ring were measured using Radnoti 8 unit tissue bath (Radnoti Glass Technology, Monrovia, Calif.) and the force transducer coupled with a Grass P7D polygraph. The dose response was recorded for 0.25, 0.5, 1, 2, 4, 6, 8, and 10 μM of clonidine with or without ET-1 (4 nM) treatment and ED50 value was calculated. Experiments were performed in Group 1: Vehicle+Clonidine (0.25 to 10 μM); and Group 2: ET-1 (4 nM)+Clonidine (0.25 to 10 μM) using (n=6) rats in each group.

α2-adrenergic receptors = conditions: higher for α2; cited from earlier work
[6] = one hour after clonidine 90 μg/kg or centhaquin 0.45 mg/kg
[7] = ET-1 300 ng/kg + prazosin 0.1 mg/kg + centhaquin 0.15 mg/kg
[8] = ET-1 100 ng/kg + clonidine 10 μg/kg, compared to vehicle treated rats receiving clonidine
[9] = ET-1 300 ng/kg + clonidine 10 μg/kg, compared to vehicle treated rats receiving clonidine
[10] = ET-1 900 ng/kg + centhaquin 0.15 mg/kg, compared to vehicle treated rats receiving centhaquin
[11] = ET-1 900 ng/kg + clonidine 10 μg/kg, compared to vehicle treated rats receiving clonidine

In the case of `Cc1noc(NS(=O)(=O)c2cccc3c(N(C)C)cccc23)c1C` [BMS-182874, (5-Dimethylamino)-N-(3,4-dimethyl-5-isoxazolyl)-1-naphthalene sulfonamide hydrochloride], the “potentiation of centhaquin induced decrease in HR, more than that produced by TAK-044 treatment” value ([1]; BMS-182874 9 mg/kg versus TAK-044 1 mg/kg, centhaquin 0.15 mg/kg) is reported as 18.63%, the “decrease in HR after centhaquin in antagonist treated rats, compared to baseline” value [1] is reported as 35.72% and the “decrease in MAP after centhaquin in antagonist treated rats, compared to baseline” value [1] is reported as 43.46%. The “decrease in PP after centhaquin in antagonist treated rats, compared to baseline” value [1] was 49.68%, the “potentiation of centhaquin hypotensive effect compared to vehicle treated rats” value [1] was 30.67% and the “potentiation of centhaquin-induced decrease in HR (bradycardia) compared to vehicle treated rats” value [1] was 29.00%. The “maximum decrease in PP after clonidine in antagonist treated rats, compared to baseline” value [1] was 44.97%, the “reduction in MAP after clonidine in antagonist treated rats, compared with the baseline” value [1] was 29.44% and the “change in MAP, PP and HR, antagonist alone” value [1] was “no significant change”. For the same compound, the “Bradycardia, Centhaquin, percent change” value [1] was “(29.00%)”, the “Decrease in pulse pressure, Centhaquin, percent change” value [1] was “(28.72%)” and the “Hypotension, Centhaquin, percent change” value [1] was “(30.67%)”.

For `Clc1cccc(Cl)c1NC1=NCCN1` [Clonidine, N-(2,6-dichlorophenyl)-4,5-dihydro-1H-imidazol-2-amine], the “effect of chronic administration on α-adrenergic receptors in the hypothalamus and medulla” value [2] is given as “up-regulation”, the “changes in arterial blood pH, pO2, pCO2, Na^+, K^+, lactate and hematocrit” value ([3]; before versus one hour after clonidine 90 μg/kg or centhaquin 0.45 mg/kg) is given as “no significant changes” and the Hct [3, 6] is given as 50 ± 4%. The “K^+” value [3, 6] was 4.3 ± 0.6 mmol/L, the “Na^+” value [3, 6] was 139 ± 2 mmol/L and the “arterial blood pH” value [3, 6] was 7.28 ± 0.03. The pCO2 [3, 6] was 46 ± 4 mmHg, the pO2 [3, 6] was 100 ± 14 mmHg and the “decrease in HR” value ([1]; clonidine 10 μg/kg) was 20.84%. For the same compound, the “fall in MAP” value ([1]; clonidine 10 μg/kg i.v.) was 24.02%, the “decrease in PP” value ([1]; clonidine 10 μg/kg) was 33.81% and the “decrease in HR” value ([1]; clonidine 30 μg/kg) was 23.18%. The “fall in MAP” value ([1]; clonidine 30 μg/kg i.v.) was 26.15%, the “decrease in PP” value ([1]; clonidine 30 μg/kg) was 36.39% and the “decrease in HR” value ([1]; clonidine 90 μg/kg) was 23.19%. For the same compound, the “fall in MAP” value ([1]; clonidine 90 μg/kg i.v.) was 19.48%, the “decrease in PP” value ([1]; clonidine 90 μg/kg) was 34.27% and the “dose-response effect on MAP, PP and HR” value ([1]; clonidine 10, 30, 90 μg/kg i.v., centhaquin 0.05, 0.15, 0.45 mg/kg i.v.) was “dose-dependent hypotension and bradycardia; also recorded: dose-dependent fall in mean arterial pressure (MAP), pulse pressure (PP), and a decrease in heart rate (HR)”. The “effect on blood pressure and heart rate” value (rats) was “did not produce any effect”, the “effect of repeated administration on 5-HT1 receptors in the medulla” value [4] was “up-regulation” and the EC50 ([5]; ET-1 (4 nM) treated aorta) was 1810 ± 40 nM. The EC50 ([5]; vehicle treated aorta) was 2640 ± 20 nM, the “percent contraction of aorta” value ([5]; clonidine 2 μM, ET-1 (4 nM) treated aorta) was 75.95±1.36% and the “percent contraction of aorta” value ([5]; clonidine 2 μM, vehicle treated aorta) was 51.017±1.70%. The “percent contraction of aorta” value ([5]; clonidine 4 μM, ET-1 treated aorta) was 96.83±0.54%, the “percent contraction of aorta” value ([5]; clonidine 4 μM, vehicle treated aorta) was 80.27±2.48% and the “contraction in rat abdominal aortic ring” value ([5]; clonidine 0.25-10 μM) was “dose-dependent (0.25-10 μM) contraction”. For the same compound, the “binding affinity for α2-adrenergic receptors relative to α1-adrenoreceptors” value (α2-adrenergic receptors) was “approximately 10 fold”.

In the case of `COc1cc2nc(N3CCN(C(=O)c4ccco4)CC3)nc(N)c2cc1OC` [Prazosin], the “effect of prazosin on changes produced in MAP by centhaquin in ET-1 treated rats” value [1, 7] is reported as “completely (p<0.01) blocked”, the “effect of prazosin on decrease in HR induced by centhaquin in ET-1 treated rats” value [1, 7] is reported as “significantly (p<0.05) attenuated” and the “effect of prazosin on decrease in PP induced by centhaquin in ET-1 treated rats” value [1, 7] is reported as “significantly (p<0.001) attenuated”. The “effect of prazosin on changes in MAP and HR by centhaquin in vehicle treated rats” value ([1]; prazosin 0.1 mg/kg + centhaquin 0.15 mg/kg) was “blocked”.

With “ET-1: endogenous 21-residue peptide endothelin isopeptide, used as ET agonist (CSCSSLMDKECVYFCHLDIIW; not fully specified; ends and bridges not checked; UniProt P05305 53-73, looked up)” the “decrease in HR produced by centhaquin, ET-1 versus vehicle treated rats” value ([1]; ET-1 100 ng/kg + centhaquin 0.15 mg/kg) was “similar”, the “attenuation of clonidine induced fall in PP” value ([1]; ET-1 100 ng/kg + clonidine 10 μg/kg) was 33.66% and the “attenuation of clonidine-induced decrease in HR” value [1, 8] was 18.01%. For the same compound, the “attenuation of clonidine-induced fall in MAP” value [1, 8] was 27.63%, the “effect on centhaquin-induced decrease in HR” value ([1]; ET-1 300 ng/kg + centhaquin 0.15 mg/kg) was “significantly attenuated” and the “attenuation of clonidine-induced decrease in HR” value [1, 9] was 21.00%. For the same compound, the “attenuation of clonidine-induced decrease in MAP” value [1, 9] was 27.41%, the “attenuation of centhaquin-induced decrease in HR (increase in HR compared to untreated rats)” value [1, 10] was 21.44% and the “attenuation of centhaquin-induced decrease in MAP (increase in MAP compared to untreated rats)” value [1, 10] was 33.48%. The “attenuation of clonidine-induced decrease in HR (increase in HR compared to untreated rats)” value [1, 11] was 37.42%, the “attenuation of clonidine-induced decrease in MAP (increase in MAP compared to untreated rats)” value [1, 11] was 42.58% and the “change in HR compared to baseline, ET-1 alone” value ([1]; ET-1 100, 300 and 900 ng/kg) was “no change”. For the same compound, the “change in MAP compared to baseline, ET-1 alone” value ([1]; ET-1 100, 300 and 900 ng/kg) was “fall (p<0.001) followed by significant rise”, the “effect of ET-1 treatment on clonidine-induced fall in MAP” value ([1]; ET-1 100, 300 and 900 ng/kg i.v., clonidine 10 μg/kg i.v., dose-dependent manner) was “significantly attenuated” and the “effect of ET-1 treatment on centhaquin-induced fall in MAP” value ([1]; ET-1 100, 300 and 900 ng/kg, centhaquin 0.15 mg/kg i.v., dose-dependent manner) was “significantly attenuated”. The “attenuation of centhaquin-induced decrease in MAP” value ([1]; ET-1 100 and 300 ng/kg + centhaquin 0.15 mg/kg) was “small statistically insignificant attenuation”, the “attenuation of clonidine induced fall in PP” value ([1]; ET-1 300 and 900 ng/kg + clonidine 10 μg/kg) was “showed attenuation, but did not reach the level of statistical significance” and the “effect of ET-1 pretreatment on contractile response of clonidine” value ([5]; ET-1 4 nM pretreated aorta) was “significantly potentiated”.

For “cyclo [D-α-aspartyl-3-[(4-phenylpiperazin-1-yl) carbonyl]-L-alanyl-L-α-aspartyl-D-2-(2-thienyl)glycyl-L-leu-Cyl-D-tryptOphyljdisodium salt [TAK-044]”, the “decrease in HR after centhaquin in antagonist treated rats, compared to baseline” value [1] was 21.94%, the “decrease in MAP after centhaquin in antagonist treated rats, compared to baseline” value [1] was 32.31% and the “decrease in PP after centhaquin in antagonist treated rats, compared to baseline” value [1] was 46.49%. For the same compound, the “potentiation of centhaquin hypotensive effect compared to vehicle treated rats” value [1] was 16.48%, the “potentiation of centhaquin-induced decrease in HR (bradycardia) compared to vehicle treated rats” value [1] was 12.74% and the “maximum decrease in PP after clonidine in antagonist treated rats, compared to baseline” value [1] was 52.72%. For the same compound, the “reduction in MAP after clonidine in antagonist treated rats, compared with the baseline” value [1] was 36.59%, the “change in MAP, PP and HR, antagonist alone” value [1] was “no significant change” and the “Bradycardia, Centhaquin, percent change” value [1] was “(12.74%)”. For the same compound, the “Decrease in pulse pressure, Centhaquin, percent change” value [1] was “(23.83%)” and the “Hypotension, Centhaquin, percent change” value [1] was “(16.48%)”.
